Source: patent US20040248139A1, “Eit-6, a polypeptide encoded by an estrogen regulated gene” (priority 2001, published 2004)

Columns and labels:
[1] = test system: EIT-6 mRNA in BT-474 cells; assay: Northern blot of EIT-6 mRNA, BT-474 cells; format: cell-based, human
Description: All the cell lines were obtained from the ATCC.
To determine if the induction of EIT-6 by estrogen is estrogen receptor-mediated, the effect of estrogen antagonists (4-hydroxy-tamoxifen and ICI 182,780) on EIT-6 mRNA levels was determined. BT-474 cells were cultured with […] (1 μM) or 4-hydroxy-tamoxifen (10 μM) for 6 hours prior to estrogen (10 nM) treatment for an additional 24 hours. […] There are multiple mechanisms by which estrogen can regulate the expression of EIT-6, e.g., (1) directly by transcriptional regulation, (2) directly by influencing mRNA stability, or (3) indirectly through other transcription factors/signaling pathways. […] To further investigate if EIT-6 is a direct or indirect target of estrogen receptors, EIT-6 mRNA levels were measured following estrogen treatment BT-474 cells in the presence of a protein synthesis inhibitor (cycloheximide) (FIG. 2B). The cells were treated with cycloheximide (10 μg/ml) for 16 hours in the presence or absence of estrogen.

[2] = test system: prolyl hydroxylase enzymes; settings: literature, compared with P2,5D where stated; cited from earlier work
[3] = test system: ZR75-1 breast cancer cells; assay: SAGE (serial analysis of gene expression) after estrogen or tamoxifen treatment; format: cell-based, human; settings: 10 nM estradiol, 16 h
Excerpt: (§1) In order to identify genes involved in the response of breast cancer cells to estrogen and tamoxifen, SAGE libraries were generated from an estrogen- dependent human breast cancer cell line (ZR75-1; obtained from the American type Culture Collection (ATTC), Manassas, VA) prior to and following estrogen or tamoxifen treatment. SAGE facilitated the determination of the absolute abundance of thousands of different mRNAs simultaneously in a comprehensive and unbiased way and to detect even slight differences in expression levels between samples [Velculescu et al. (1995) Science 270: 484-487; Polyak et al. (1997) Nature 389:300-305; Lal et al. (1999) Cancer Res. 59:5403-5607; Velculescu et al. (1999) Nature Genetics 23:387-388]. ZR75-1 cells cultured in the absence of steroid hormones (i.e., in phenol red-free culture medium containing charcoal-treated fetal bovine serum (FBS) (5%)) for seven days were split into three aliquots which were then cultured in fresh steroid-free medium containing no additive, 10 nM estradiol, or 10 μM 4-hydroxy-tamoxifen. Cells were harvested from the cultures after sixteen hours and response to the hormone treatment was confirmed by FACS analysis of cell cycle progression and by Northern blot analysis to test for the expression of known estrogen target genes.
SAGE libraries from untreated, estrogen-treated and tamoxifen-treated ZR75-1 cells were generated using a modified micro-SAGE protocol [Porter et al. (2001) Cancer Res. 61: 5697-5702]. From the three SAGE libraries 140,638 tags were obtained, approximately 45,000 from each library. Hierarchical clustering was applied to data using the Auster program developed by Eisen et al. [(1998) Proc. Natl. Acad. Sci. USA. 95: 14863-14868]. Data was log-transformed and filtered for at least 1 observations abs Val 5 and Maxval-Minval >5. Using these settings 2,818 genes (out of 16,808 total) were included in the analysis that led to the identification of several estrogen- and/or tamoxifen-induced transcripts. […] Linking the UniGene database to the SAGE data identified the cDNAs corresponding to the SAGE tags in most of the cases (Table 1). Genes were named according to their relative abundance in the three SAGE libraries: EIT (Estrogen Induced Tag)-induced by estrogen; TIT (Tamoxifen Induced Tag)-induced by tamoxifen; and DET (Differently Expressed Tag)-differently expressed following estrogen or tamoxifen treatment.

[4] = test system: T47D ER+ breast cancer cells; assay: Colony assay, T47D cells; format: cell-based, human; settings: control pCEP4 and EIT-6 transfected cells, charcoal/dextran treated FBS, estrogen 10 nM
Description: In order to test whether EIT-6 expresssion influences cell proliferation and/or survival, colony assays were performed. […] T47D ER+breast cancer cells were transfected with a control construct (pCEP4) or the pCEP4-EIT6 construct. Stable transfectants were selected by culturing the cells in the presence of hygromycin for two weeks after which colonies were visualized by crystal violet staining. […] The number of colonies per cm^2 was determined by spot-densitometry-assisted counting using a MultiImage Lightbox (Alfa Innotech, San Leandro, Calif.). Two flasks per experimental group and two independent areas in each flask were analyzed.
To test if expression of EIT-6 can confer estrogen independent growth, ER+and estrogen dependent T47D breast cancer cells were transfected with control pCEP4 or pCEP4-EIT6 constructs. Stable transfectants were selected by culturing the cells in phenol red-free medium supplemented with charcoal/dextran treated (and thus steroid hormone depleted) FBS (5%) and hygromycin. Half the flasks contained estrogen (10 nM). After two weeks of dry selection, colonies were visualized by crystal violet staining and counted as described above.

EIT-6 promoter region = settings: ~5.5 kb EIT-6 promoter construct co-transfected with estrogen receptor α
Description: To further characterize the mechanism by which the estrogen receptor induces EIT-6, a fragment of the proximal EIT-6 promoter was tested for its ability to confer estrogen responsiveness on a luciferase reporter gene. The luciferase construct was generated by subcloning a BAC (bacterial artificial chromosome)-derived fragment of EIT-6 promoter region (approximately 5.5 kb in length) into pBR-pl-luc [Polyak et al. (1997)]. The cells were transfected using FuGene 6 (Roche, Basel, Switzerland) and treated with estrogen the day after transfection. On the day following estrogen treatment luciferase activity was determined using a luciferase assay system (Promega, Madison, Wis.). […] Luciferase and β-galactosidase activity was measured following transient co-transfection of these constructs with the estrogen receptor α-encoding construct (referred to above) and a vector containing a β-galactosidase-encoding cDNA sequence under control of a constitutive (CMV) promoter into HepG2 cells as described above and the values of luciferase activity were normalized for transfection efficiency by calculating ratios of luciferase activity to β-galactosidase activity which was measured using the Aurora GAL-XE reporter gene assay (ICN, Costa Mesa, Calif.). “Fold induction” was calculated according to the following formula:

ZR75-1 cells = assay: FACS analysis of cell cycle progression; format: cell-based, human; settings: steroid-deprived ZR75-1 cells; 10 nM estradiol or 10 μM 4-hydroxy-tamoxifen, 16 h
Excerpt: as §1

[5] = test system: putative estrogen responsive elements (ERE) in HepG2 cells; assay: Luciferase reporter assay, ERE concatamer constructs with estrogen receptor α in HepG2 cells
Description: The cells were transfected using FuGene 6 (Roche, Basel, Switzerland) and treated with estrogen the day after transfection. On the day following estrogen treatment luciferase activity was determined using a luciferase assay system (Promega, Madison, Wis.). […] To determine whether these putative EREs could confer estrogen responsiveness, various constructs containing concatemers of each of these elements (in a variety of combinations) up-stream of a luciferase gene were generated (FIG. 2D). These concatamer constructs were generated by subcloning concatamers of PCR-derived fragments (of the EIT-6 promoter region) containing the putative ERE's into pBR-pl-TATA-luc [Polyak et al. (1997) Nature 389:300-305]. Luciferase and β-galactosidase activity was measured following transient co-transfection of these constructs with the estrogen receptor α-encoding construct (referred to above) and a vector containing a β-galactosidase-encoding cDNA sequence under control of a constitutive (CMV) promoter into HepG2 cells as described above and the values of luciferase activity were normalized for transfection efficiency by calculating ratios of luciferase activity to β-galactosidase activity which was measured using the Aurora GAL-XE reporter gene assay (ICN, Costa Mesa, Calif.). “Fold induction” was calculated according to the following formula:
Fold induction=(luciferase activity in estrogen treated cells÷βgalactosidase activity in estrogen treated cells)÷(luciferase activity in control cells÷βgalactosidase activity in control cells).

[6] = test system: EIT-6 mRNA in ZR75-1 cells; assay: Northern blot of EIT-6 mRNA, ZR75-1 cells; format: cell-based, human
Excerpt: To confirm the result of the SAGE experiment, probes corresponding to some of the cDNA clones were generated and the induction of the relevant genes was confirmed by Northern blot analysis (FIG. 1A) performed as previously described [Polyak et al. (1997)]. Of the twenty estrogen- or tamoxifen-induced genes (Table 1), only one (EIT-10;cathepsin D) had previously been implicated as a target of ER-transcriptional activation and three had not previously been described at all. In most cases the sequences of the relevant genes provided important clues as to their potential functions (Table 1). Several of the genes are predicted to be involved in the regulation of cell proliferation and/or survival. […]

[7] = BT-474, 16 h, cycloheximide 10 μg/ml

**Q.** Which “abolition of estrogen induction of EIT-6 mRNA” value ([1]; BT-474, antagonist (ICI 1 μM or 4-hydroxy-tamoxifen 10 μM) 6 h before estrogen 10 nM for 24 h) does the source give for `C[C@]12CC[C@@H]3c4ccc(O)cc4C[C@@H](CCCCCCCCC[S+]([O-])CCCC(F)(F)C(F)(F)F)[C@H]3[C@@H]1CC[C@@H]2O` (stereo partly shown) [ICI 182,780] here?
**A.** completely

**Q.** Which “inhibition of prolyl hydroxylase” value [2] does the source give for `C[C@@H](NC(=O)C(=O)O)C(=O)O` [N-oxalyl-2R-alanine] here?
**A.** not

**Q.** Which “inhibition of prolyl hydroxylase” value [2] does the source give for `C[C@H](NC(=O)C(=O)O)C(=O)O` [N-oxalyl-2S-alanine] here?
**A.** Inhibitory

**Q.** Which “inhibition of prolyl hydroxylase” value [2] does the source give for `O=C(O)CNC(=O)C(=O)O` [N-oxalylglycine] here?
**A.** Inhibitory

**Q.** For `C[C@@H]1C[C@@H]([C@H](O)CC2CC(=O)NC(=O)C2)C(=O)[C@@H](C)C1` [cycloheximide], which “EIT-6 mRNA levels, separate treatment” value [1, 7] is on record?
**A.** modestly increased

**Q.** With `C[C@]12CC[C@@H]3c4ccc(O)cc4CC[C@H]3[C@@H]1CC[C@@H]2O` [estrogen, estradiol] as the compound, how does the “SAGE tags, E (estrogen-treated)” value ([3]; gene DET-1, untreated C = 4) read?
**A.** 15

**Q.** What about the “SAGE tags, E (estrogen-treated)” value ([3]; gene DET-2, untreated C = 3) of the same compound?
**A.** 13

**Q.** And the “SAGE tags, E (estrogen-treated)” value ([3]; gene DET-13, untreated C = 7)?
**A.** 1

**Q.** What about the “SAGE tags, E (estrogen-treated)” value ([3]; gene DET-14, untreated C = 4) of the same compound?
**A.** 1

**Q.** And the “SAGE tags, E (estrogen-treated)” value ([3]; gene DET-15 (USF2), untreated C = 11)?
**A.** 1

**Q.** What about the “SAGE tags, E (estrogen-treated)” value ([3]; gene DET-16, untreated C = 7) of the same compound?
**A.** 0

**Q.** What about the “SAGE tags, E (estrogen-treated)” value ([3]; gene DET-17 (SULT 1A), untreated C = 0) of the same compound?
**A.** 1

**Q.** And the “SAGE tags, E (estrogen-treated)” value ([3]; gene EIT-1, untreated C = 1)?
**A.** 14

**Q.** And the “SAGE tags, E (estrogen-treated)” value ([3]; gene EIT-2 (TIM17B), untreated C = 1)?
**A.** 14

**Q.** And the “SAGE tags, E (estrogen-treated)” value ([3]; gene EIT-3, untreated C = 2)?
**A.** 19

**Q.** What about the “SAGE tags, E (estrogen-treated)” value ([3]; gene EIT-4, untreated C = 2) of the same compound?
**A.** 18

**Q.** And the “SAGE tags, E (estrogen-treated)” value ([3]; gene EIT-5, untreated C = 5)?
**A.** 27

**Q.** And the “SAGE tags, E (estrogen-treated)” value ([3]; gene EIT-6, untreated C = 5)?
**A.** 26

**Q.** And the “SAGE tags, E (estrogen-treated)” value ([3]; gene EIT-10 (Cathepsin D), untreated C = 112)?
**A.** 451

**Q.** And the “SAGE tags, E (estrogen-treated)” value ([3]; gene TIT-1, untreated C = 0)?
**A.** 4

**Q.** What about the “SAGE tags, E (estrogen-treated)” value ([3]; gene TIT-2, untreated C = 0) of the same compound?
**A.** 3

**Q.** What about the “SAGE tags, E (estrogen-treated)” value ([3]; gene TIT-3, untreated C = 8) of the same compound?
**A.** 28

**Q.** What about the “SAGE tags, E (estrogen-treated)” value ([3]; gene TIT-4, untreated C = 7) of the same compound?
**A.** 27

**Q.** And the “SAGE tags, E (estrogen-treated)” value ([3]; gene TIT-5, untreated C = 9)?
**A.** 19

**Q.** And the “colony numbers on addition of estrogen” value [4]?
**A.** increased colony numbers

**Q.** And the luciferase activity (EIT-6 promoter region)?
**A.** modest but reproducible induction

**Q.** And the S-phase entry (ZR75-1 cells)?
**A.** stimulated rapid S-phase entry

**Q.** And the “EIT-6 mRNA levels, separate treatment” value [1, 7]?
**A.** modestly increased

**Q.** And the “EIT-6 mRNA levels, estrogen in the presence of cycloheximide” value ([1]; BT-474, cycloheximide 10 μg/ml, 16 h)?
**A.** much stronger induction

**Q.** What about the “induction of EIT-6 mRNA” value ([1]; BT-474 cells, Northern blot) of the same compound?
**A.** ~10 fold

**Q.** What about the “fold induction of luciferase by estrogen” value ([5]; E4 construct (3 copies of the E4 ERE), HepG2, normalized to β-galactosidase) of the same compound?
**A.** 4-5 fold

**Q.** And the “fold induction of luciferase by estrogen” value ([5]; VIT construct (two copies of vitellogenin consensus ERE), HepG2)?
**A.** 10-11 fold

**Q.** And the “estrogen responsiveness of luciferase constructs” value ([5]; most of the putative ERE combinations, HepG2)?
**A.** relatively weak

**Q.** And the “induction of EIT-6 mRNA” value [6]?
**A.** ~5 fold
